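The compound was tested at five concentrations on cells cultured in 96-well plates, with a 48-hour exposure period. Abbreviation: GI50, concentration required for 50% inhibition of growth.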 Active and inactive are the calls of the source. Rule as the data show it: active = GI50 up to about 1.1 µM and inactive = higher.
How the values were obtained:
Test in all cases: NCI tumour cell line growth inhibition, 48 h
A498 = system: A498
BT-549 = system: BT-549
CCRF-CEM = system: CCRF-CEM
COLO 205 = system: COLO 205
HL-60 = system: HL-60
KM12 = system: KM12
M14 = system: M14
MCF7 = system: MCF7
MOLT-4 = system: MOLT-4
NCI-H460 = system: NCI-H460
NCI/ADR-RES = system: NCI/ADR-RES
OVCAR-4 = system: OVCAR-4
OVCAR-8 = system: OVCAR-8
SR = system: SR
SW-620 = system: SW-620
T47D = system: T47D
TK-10 = system: TK-10
RXF 393 = system: RXF 393
UO-31 = system: UO-31

Measured: GI50

CC#CC#C/C(=C/C=CC(=O)OC)SC
inactive: A498 > 100 µM | BT-549 > 100 µM | CCRF-CEM > 10 µM | COLO 205 > 100 µM | HL-60 > 100 µM | KM12 > 100 µM | M14 > 100 µM | MCF7 > 100 µM | MOLT-4 > 100 µM | NCI-H460 > 100 µM | NCI/ADR-RES > 100 µM | OVCAR-4 > 100 µM | OVCAR-8 > 100 µM | SR > 10 µM | SW-620 > 100 µM | T47D > 100 µM | TK-10 > 100 µM

CC(=O)O[C@H]1/C(=C/c2ccc(N(C)C)cc2)C[C@H]2[C@@H]3CC=C4C[C@@H](N5CCCC5)CC[C@]4(C)[C@H]3CC[C@]12C
inactive: A498 > 100 µM | BT-549 > 100 µM | COLO 205 > 100 µM | HL-60 > 100 µM | M14 > 100 µM | MCF7 > 100 µM | MOLT-4 > 100 µM | NCI-H460 61.9 µM | NCI/ADR-RES > 100 µM | OVCAR-8 > 100 µM | RXF 393 > 100 µM | SR 40 µM | SW-620 > 100 µM | T47D 65.6 µM | TK-10 > 100 µM | UO-31 > 100 µM

COc1ccc(/C=N/NC(=O)O)cc1
inactive: A498 > 100 µM | BT-549 > 100 µM | COLO 205 > 100 µM | KM12 > 100 µM | M14 > 100 µM | MCF7 > 100 µM | MOLT-4 > 100 µM | NCI-H460 > 100 µM | NCI/ADR-RES > 100 µM | OVCAR-4 > 100 µM | RXF 393 > 100 µM | SR > 100 µM | SW-620 > 100 µM | T47D > 100 µM | TK-10 > 100 µM | UO-31 > 100 µM

O=C1c2ccccc2C(=O)c2c1ccc(C(=O)O)c2-c1ccc2ccccc2c1
inactive: A498 29 µM | BT-549 26.4 µM | CCRF-CEM 23.3 µM | COLO 205 10.4 µM | HL-60 27.9 µM | KM12 27 µM | M14 20.5 µM | MCF7 3.42 µM | MOLT-4 19.1 µM | NCI-H460 30.1 µM | NCI/ADR-RES 30.8 µM | OVCAR-4 30.8 µM | OVCAR-8 33.5 µM | SR 16.6 µM | SW-620 29.4 µM | T47D 2.22 µM | TK-10 61.2 µM | UO-31 21.2 µM

O=C(O)C(/C=C/c1ccccc1)c1ccccc1 (centres undefined)
inactive: A498 > 100 µM | BT-549 > 100 µM | CCRF-CEM 14.3 µM | COLO 205 > 100 µM | HL-60 9.25 µM | M14 > 100 µM | MCF7 > 100 µM | MOLT-4 6.59 µM | NCI-H460 > 100 µM | NCI/ADR-RES > 100 µM | OVCAR-8 > 100 µM | RXF 393 > 100 µM | SR 5.11 µM | SW-620 > 100 µM | T47D > 100 µM | TK-10 > 100 µM | UO-31 > 100 µM

Cc1cc2cc3c(O)nc(O)nc3nc2cc1C
inactive: A498 > 100 µM | BT-549 > 100 µM | COLO 205 > 100 µM | HL-60 > 100 µM | KM12 > 100 µM | M14 > 100 µM | MCF7 > 100 µM | MOLT-4 > 100 µM | NCI-H460 > 100 µM | NCI/ADR-RES > 100 µM | OVCAR-4 > 100 µM | OVCAR-8 > 100 µM | RXF 393 52.2 µM | SR > 100 µM | SW-620 > 100 µM | T47D > 100 µM | TK-10 > 100 µM | UO-31 > 100 µM

CCC1c2[nH]c3ccccc3c2C[C@H]2C(=O)NC(C)C(=O)N12 (some centres undefined)
inactive: A498 > 100 µM | BT-549 > 100 µM | COLO 205 > 100 µM | HL-60 > 100 µM | KM12 > 100 µM | M14 > 100 µM | MCF7 > 100 µM | MOLT-4 > 100 µM | NCI/ADR-RES > 100 µM | OVCAR-4 > 100 µM | OVCAR-8 > 100 µM | RXF 393 > 100 µM | SR > 100 µM | SW-620 > 100 µM | T47D > 100 µM | TK-10 > 100 µM | UO-31 > 100 µM

C[N+]1([O-])[C@H]2CC(OC(=O)[C@H](CO)c3ccccc3)C[C@H]1[C@H]1O[C@H]12 (some centres undefined)
inactive: A498 > 100 µM | BT-549 > 100 µM | CCRF-CEM 21.2 µM | COLO 205 > 100 µM | KM12 > 100 µM | M14 > 100 µM | MCF7 > 100 µM | MOLT-4 > 100 µM | NCI/ADR-RES > 100 µM | OVCAR-4 > 100 µM | OVCAR-8 > 100 µM | RXF 393 > 100 µM | SR > 100 µM | SW-620 > 100 µM | T47D > 100 µM | TK-10 > 100 µM | UO-31 > 100 µM

O=C(O)CCC(=O)Nc1ccc2c(c1)S(=O)(=O)N(CC(=O)O)C2=O
inactive: A498 > 100 µM | BT-549 > 100 µM | CCRF-CEM > 100 µM | COLO 205 > 100 µM | HL-60 > 100 µM | KM12 21.9 µM | M14 > 100 µM | MCF7 > 100 µM | MOLT-4 > 100 µM | NCI-H460 > 100 µM | NCI/ADR-RES > 100 µM | OVCAR-4 > 100 µM | OVCAR-8 > 100 µM | SR > 100 µM | SW-620 > 100 µM | T47D > 100 µM | TK-10 > 100 µM | UO-31 > 100 µM

NC1CC(=O)c2c(Br)csc21 (centres undefined)
inactive: A498 78 µM | BT-549 33 µM | CCRF-CEM 42.7 µM | COLO 205 58.1 µM | HL-60 39.2 µM | KM12 32.1 µM | M14 > 100 µM | MCF7 49 µM | MOLT-4 46.6 µM | NCI-H460 41 µM | NCI/ADR-RES > 100 µM | OVCAR-8 42.9 µM | RXF 393 54.7 µM | SR 46.6 µM | SW-620 30.2 µM | T47D > 100 µM | TK-10 32.5 µM | UO-31 33 µM

Cc1c(-c2ccccc2)c(C#N)c2nnn(-c3cccc(Cl)c3)c(=O)n12
inactive: A498 26.2 µM | BT-549 88.7 µM | CCRF-CEM 28.1 µM | COLO 205 44.4 µM | HL-60 > 100 µM | KM12 55.8 µM | MCF7 43.9 µM | NCI-H460 > 100 µM | NCI/ADR-RES > 100 µM | OVCAR-4 76.2 µM | OVCAR-8 53.5 µM | RXF 393 31.2 µM | SR 12.6 µM | SW-620 46.8 µM | T47D 60.5 µM | TK-10 > 100 µM

O=c1c(O)c(-c2cc(O)c(O)cc2O)oc2cc(O)c(C3OC(CO)C(O)C(O)C3O)c(O)c12 (centres undefined)
inactive: A498 > 100 µM | BT-549 > 100 µM | HL-60 > 100 µM | KM12 > 100 µM | M14 > 100 µM | MCF7 > 100 µM | MOLT-4 > 100 µM | NCI-H460 > 100 µM | NCI/ADR-RES > 100 µM | OVCAR-4 > 100 µM | OVCAR-8 > 100 µM | SR > 100 µM | SW-620 > 100 µM | T47D > 100 µM | TK-10 > 100 µM | UO-31 > 100 µM

— ChEMBL document CHEMBL1201862, “PubChem BioAssay data set” (2004)
